Counter-ions that a name gives are not always drawn.
Key:
[1] = target: T1, purified human platelet fibrinogen receptor (GPIIb/IIIa) (Homo sapiens, UniProt P05106+P08514); experiment: Test (b): GPIIb/IIIa ELISA, inhibition of biotinylated fibrinogen binding; conditions: purified human platelet GPIIb/IIIa, ELISA; for IC50: read-out: Test (b): pIC50 (-log(IC50)), 50% inhibition of biotinylated fibrinogen binding to GPIIb/IIIa (converted)
T1 construct: is isolated from human platelet lysates; from tissue
T1 sequence (P08514 32-887 limits assumed): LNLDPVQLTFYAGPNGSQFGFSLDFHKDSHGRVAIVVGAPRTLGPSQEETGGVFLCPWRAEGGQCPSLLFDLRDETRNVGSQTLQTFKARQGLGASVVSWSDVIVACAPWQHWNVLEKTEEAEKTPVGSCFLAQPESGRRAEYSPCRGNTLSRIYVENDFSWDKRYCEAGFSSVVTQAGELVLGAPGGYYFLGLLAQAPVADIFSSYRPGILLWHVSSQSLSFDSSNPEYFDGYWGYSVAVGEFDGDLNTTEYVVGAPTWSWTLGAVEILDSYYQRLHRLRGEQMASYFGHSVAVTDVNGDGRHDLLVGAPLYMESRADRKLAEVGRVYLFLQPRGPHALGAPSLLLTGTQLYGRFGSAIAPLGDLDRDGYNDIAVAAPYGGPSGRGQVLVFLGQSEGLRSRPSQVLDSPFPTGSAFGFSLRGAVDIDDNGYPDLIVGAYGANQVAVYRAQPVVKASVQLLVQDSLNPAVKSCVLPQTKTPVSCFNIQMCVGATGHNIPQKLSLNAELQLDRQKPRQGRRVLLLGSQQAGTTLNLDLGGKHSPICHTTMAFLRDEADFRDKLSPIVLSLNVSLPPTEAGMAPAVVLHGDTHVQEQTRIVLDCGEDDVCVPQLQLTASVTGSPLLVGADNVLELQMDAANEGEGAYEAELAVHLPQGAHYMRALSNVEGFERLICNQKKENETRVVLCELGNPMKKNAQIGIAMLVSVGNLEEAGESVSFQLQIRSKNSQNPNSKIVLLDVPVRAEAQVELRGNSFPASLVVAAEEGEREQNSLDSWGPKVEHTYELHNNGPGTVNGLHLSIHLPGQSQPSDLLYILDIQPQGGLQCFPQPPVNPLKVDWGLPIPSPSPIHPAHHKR
T1 sequence (P08514 891-1039 limits assumed): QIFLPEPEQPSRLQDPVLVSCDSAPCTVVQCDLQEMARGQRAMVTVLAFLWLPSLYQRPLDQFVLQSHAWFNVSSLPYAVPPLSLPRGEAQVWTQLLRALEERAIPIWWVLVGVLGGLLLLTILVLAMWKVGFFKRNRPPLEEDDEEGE
T1 sequence (P05106 27-788): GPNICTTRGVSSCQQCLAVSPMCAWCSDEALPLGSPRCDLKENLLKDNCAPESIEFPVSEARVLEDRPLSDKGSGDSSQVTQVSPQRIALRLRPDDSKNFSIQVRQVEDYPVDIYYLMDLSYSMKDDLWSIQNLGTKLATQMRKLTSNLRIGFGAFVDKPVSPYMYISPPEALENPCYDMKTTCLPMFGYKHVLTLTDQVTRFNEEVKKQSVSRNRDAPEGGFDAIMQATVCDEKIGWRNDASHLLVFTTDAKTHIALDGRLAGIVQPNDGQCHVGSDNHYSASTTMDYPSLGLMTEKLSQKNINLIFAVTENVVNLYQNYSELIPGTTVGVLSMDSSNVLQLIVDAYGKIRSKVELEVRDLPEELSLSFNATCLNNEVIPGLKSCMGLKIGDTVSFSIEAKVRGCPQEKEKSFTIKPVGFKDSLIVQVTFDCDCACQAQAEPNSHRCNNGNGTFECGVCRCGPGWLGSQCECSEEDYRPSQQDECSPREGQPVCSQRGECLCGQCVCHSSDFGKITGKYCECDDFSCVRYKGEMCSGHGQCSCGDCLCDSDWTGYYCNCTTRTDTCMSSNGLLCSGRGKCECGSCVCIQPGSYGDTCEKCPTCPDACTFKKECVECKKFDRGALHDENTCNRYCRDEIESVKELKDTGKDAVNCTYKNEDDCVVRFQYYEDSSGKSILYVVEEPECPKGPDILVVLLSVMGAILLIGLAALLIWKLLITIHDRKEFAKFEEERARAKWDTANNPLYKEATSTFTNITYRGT
Summary of the method: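 GPIIb/IIIa affinity-purified from human platelet lysates was coated on plates, blocked, then incubated 2 h at 30 °C with biotinylated fibrinogen ([…]) plus compound. Bound fibrinogen detected via streptavidin/biotinylated HRP and TMB, OD at 650 nm; pIC50 for 50% binding inhibition.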

[2] = target: T2, human, citrated, platelet-rich plasma (Homo sapiens, UniProt P05106+P08514); experiment: Test (a): inhibition of ADP stimulated platelet aggregation (Born); format: cell-based; conditions: ADP induced aggregation of human platelet-rich plasma; for Kb: read-out: Test (a): pA2 value indicating potency of platelet aggregation inhibition (converted)
T2 construct: aggregating human, citrated, platelet-rich plasma; endogenous in cells; host or cells: human platelets in citrated platelet-rich plasma
T2 sequence (P08514 32-887 limits assumed): as the sequence (P08514 32-887 limits assumed) above
T2 sequence (P08514 891-1039 limits assumed): as the sequence (P08514 891-1039 limits assumed) above
T2 sequence (P05106 27-788): as the sequence (P05106 27-788) above
Summary of the method: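 ADP added to human citrated platelet-rich plasma to build aggregation dose-response curves, repeated with increasing test compound (generally 10-^5 M to 10-^10 M). pA2 derived from the 50% response value for ADP with vs. without compound, averaged over several concentrations.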

SMILES | IC50 [1] | Kb [2] | Test (b): pIC50 (-log(IC50)), 50% inhibition of biotinylated fibrinogen binding to GPIIb/IIIa [1] | Test (a): pA2 value indicating potency of platelet aggregation inhibition [2]
CS(=O)(=O)N[C@@H](Cc1ccc(OCCC2CCN(c3ccncc3)CC2)cc1)C(=O)O [Example 88, 2-S-(Methylsulphonylamino)-3-[4-[2-[1-(4-pyridyl)piperidin-4-yl]ethoxy]phenyl]propionic acid] | 2.51 nM | 1 nM | – | –
O=C(O)[C@H](Cc1ccc(OCCC2CCN(c3ccncc3)CC2)cc1)NS(=O)(=O)Cc1ccccc1 [Example 89, 2-S-(Benzylsulphonylamino)-3-[4-[2-[1-(4-pyridyl)piperidin-4-yl]ethoxy]phenyl]propionic acid] | 2 nM | 39.8 nM | – | –
Cc1ccc(S(=O)(=O)N[C@@H](Cc2ccc(OCCC3CCN(c4ccncc4)CC3)cc2)C(=O)O)cc1 [Example 90, Lithium 2-S-(4-methylphenylsulphonylamino)-3-[4-[2-[1-(4-pyridyl)piperidin-4-yl]ethoxy]phenyl]propionate] | 3.16 nM | 10 nM | – | –
CCCCC(=O)N[C@@H](Cc1ccc(OCCC2CCN(c3ccncc3)CC2)cc1)C(=O)OC [Example 91, Methyl 2-S-(pentanoylamino)-3-[4-[2-[1-(4-pyridyl)piperidin-4-yl]ethoxy]phenyl]propionate] | 200 nM | 158 nM | – | –
CCCCC(=O)N[C@@H](Cc1ccc(OCC2CCN(c3ccncc3)CC2)cc1)C(=O)OC [Example 92, Methyl 2-S-(pentanoylamino)-3-[4-[1-(4-pyridyl)piperidin-4-yl]methoxyphenyl]propionate] | 79.4 nM | 2000 nM | – | –
CCCCC(=O)N[C@@H](Cc1ccc(OCCC2CCN(c3ccncc3)CC2)cc1)C(=O)O [Example 93, 2-S-(Pentanoylamino)-3-[4-[2-[1-(4-pyridyl)piperidin-4-yl]ethoxy]phenyl]propionic acid] | 3.16 nM | 12.6 nM | – | –
O=C(N[C@@H](Cc1ccc(OCCC2CCN(c3ccncc3)CC2)cc1)C(=O)O)OCc1ccccc1 [Example 94, 2-S-(Benzyloxycarbonylamino)-3-[4-[2-[1-(4-pyridyl)piperidin-4-yl]ethoxy]phenyl]propionic acid] | 2.51 nM | 316 nM | – | –
CCCCS(=O)(=O)N[C@@H](Cc1ccc(OCCCN(C)c2ccncc2)cc1)C(=O)OC [Example 95, Methyl-2-S-(n-butylsulphonylamino)-3-[3-(N-methyl-N-4-pyridyl)aminopropoxy]phenylpropionate] | 7940 nM | 10000 nM | – | –
CCCCS(=O)(=O)N[C@@H](Cc1ccc(OCCCN(C)c2ccncc2)cc1)C(=O)O [Example 96] | 3.98 nM | 79.4 nM | – | –
CCCCS(=O)(=O)NC(CC(=O)OC)c1ccc(OCC2CCN(c3ccncc3)CC2)cc1 (stereo not drawn) [Example 97, Methyl 3-(n-butylsulphonylamino)-3-[4-[1-(4-pyridyl)piperidin-4-yl]-methoxyphenyl]propionate] | 3160 nM | 3980 nM | – | –
CCCCS(=O)(=O)NC(CC(=O)O)c1ccc(OCC2CCN(c3ccncc3)CC2)cc1 (stereo not drawn) [Example 98, 3-(n-Butylsulphonylamino)-3-[4-[1-(4-pyridyl)piperidin-4-yl]methoxyphenyl]propionic acid] | – | – | 8.5 | 7.6
COC(=O)CC(NS(=O)(=O)c1ccc(C)cc1)c1ccc(OCC2CCN(c3ccncc3)CC2)cc1 (stereo not drawn) [Example 99, Methyl 3-(4-methylphenylsulphonylamino)-3-[4-[1-(4-pyridyl)piperidin-4-yl]methoxyphenyl]propionate] | 251 nM | 3980 nM | – | –
CCCCS(=O)(=O)N[C@H](Cc1ccc(OCC2CCN(c3ccncc3)CC2)cc1)C(=O)OC [Example 100, Methyl 2-R-(n-butylsulphonylamino)-3-[4-[1-(4-pyridyl)piperidin-4-yl]methoxyphenyl]propionate] | 3980 nM | 39800 nM | – | –
CCCCS(=O)(=O)N[C@H](Cc1ccc(OCC2CCN(c3ccncc3)CC2)cc1)C(=O)O [Example 101] | 31.6 nM | 501 nM | – | –
O=C(O)CC1(O)CCC(N2CCN(c3ccncc3)CC2)CC1 (stereo not drawn) [Example 102, cis-1-Hydroxy-4[4-(4-pyridyl)piperazin-1-yl]cyclohexaneacetic acid] | 1580 nM | 2000 nM | – | –
CC(C)(C)OC(=O)COC1CCCN(C(=O)CN2CCN(c3ccncc3)CC2)C1 (stereo not drawn) [Example 103, Tert-butyl 1-[2-[4-(4-pyridyl)piperazin-1in-1-yl]acetyl]piperidin-3-yloxyacetate] | 7940 nM | 31600 nM | – | –
O=C(O)COC1CCCN(C(=O)CN2CCN(c3ccncc3)CC2)C1 (stereo not drawn) [Example 104, 1[2-[4-(4-Pyridyl)piperazin-1yl]acetyl]piperidin-3-yloxyacetic acid] | 20000 nM | > 100000 nM | – | –
CC(C)(C)OC(=O)COC1CCN(C(=O)CN2CCN(c3ccncc3)CC2)CC1 [Example 106] | 39800 nM | 15800 nM | – | –

SMILES | IC50 [1] | Kb [2] | Test (b): pIC50 (-log(IC50)), 50% inhibition of biotinylated fibrinogen binding to GPIIb/IIIa [1] | Test (a): pA2 value indicating potency of platelet aggregation inhibition [2]
COCCNC(=O)COC1CCN(C(=O)CN2CCN(c3ccncc3)CC2)CC1 [Example 107, N-2-Methoxyethyl 1-[2-[4-(4-pyridyl)piperazin-1-yl]acetyl]-piperidin-4-yloxyacetamide] | > 100000 nM | 31600 nM | – | –
O=C(O)COc1ccc(C(=O)CN2CCC(=Cc3cnccc3N3CCCC3)C2)cc1 [Example 108, 4-[2-[3-[4-(1-Pyrrolidinyl)pyridin-3yl]methylidene]pyrrolidin-1-yl]-acetylphenoxyacetic acid] | 1260 nM | 501 nM | – | –
O=C(O)CCC1CCN(C(=O)CN2CCN(c3ccncc3)CC2)CC1 [Example 109, 3-[1-[2-[4-(4-Pyridyl)piperazin-1-yl]acetyl]piperidin-4-yl]propanoic acid] | 631 nM | 316 nM | – | –
O=C(O)CCC(CC1CCN(C(=O)CN2CCN(c3ccncc3)CC2)CC1)C(=O)O (stereo not drawn) [Example 112] | – | – | 5.5 | 5.2
CN(C)c1ccncc1COc1ccc(OCCCC(=O)O)cc1 [Example 113, 4-[4-[(4-Dimethylaminopyrid-3-yl)methoxy]phenoxy]butanoic acid] | 25100 nM | > 100000 nM | – | –
COC(=O)C(Cc1ccc(OCc2cnccc2N(C)C)cc1)NC(=O)OCc1ccccc1 (stereo not drawn) [Example 114, Methyl3-(4-dimethylamninopyrid-3-yl)methoxyphenoxyl-2-benzyloxycarbonylaminopropanoate] | 2510 nM | > 100000 nM | – | –
CCCCS(=O)(=O)NCC1CCN(C(=O)CN2CCN(c3ccncc3)CC2)CC1 [Example 115, N-[1-[2-[4-(4-Pyridiyl)piperazin-1-yl]acetyl]piperidin-4-ylmethyl]-1-butanesulphonamide] | > 100000 nM | 3980 nM | – | –
COC(=O)COc1c(Cl)cc(C(=O)CN2CCN(c3ccncc3)CC2)cc1Cl [Example 116] | 2510 nM | 2000 nM | – | –
COC(=O)COc1ccc(C(=O)CN2CCN(c3ccncc3)CC2)c2ccccc12 [Example 117] | 3980 nM | 12600 nM | – | –
COC(=O)COc1ccc(C(=O)CN2CCN(c3ccncc3)CC2)c(C)c1 [Example 118, Methyl 4-[2-[4-(4-pyridyl)piperazin-1-yl]acetyl]-3-methylphenoxyacetate] | 398 nM | 200 nM | – | –
COC(=O)COc1cccc(C(=O)CN2CCN(c3ccncc3)CC2)c1 [Example 119] | > 100000 nM | 31600 nM | – | –
O=C(O)COc1c(Cl)cc(C(=O)CN2CCN(c3ccncc3)CC2)cc1Cl [Example 123, 4-[2-[4-(4-Pyridyl)piperazin-1-yl]acetyl]-2,6-dichlorophenoxyacetic acid, dihydrochloride] | 100 nM | 1000 nM | – | –
O=C(O)COc1ccc(C(=O)CN2CCN(c3ccncc3)CC2)c2ccccc12 [Example 124, 4-[2-[4-(4-Pyridyl)piperazin-1-yl]acetyl]naphthoxyacetic acid, dihydrochloride] | 251 nM | 794 nM | – | –
Cc1cc(OCC(=O)O)ccc1C(=O)CN1CCN(c2ccncc2)CC1 [Example 125, 4-[2-[4-(4-Pyridyl)piperazin-1-yl]acetyl]-3-methylphenoxyacetic acid, dihydrochloride] | 15.8 nM | 158 nM | – | –
O=C(O)COc1cccc(C(=O)CN2CCN(c3ccncc3)CC2)c1 [Example 126, 3-[2-[4-(4-Pyridyl)piperazin-1-yl]acetyl]phenoxyacetic acid, dihydrochloride] | 3160 nM | 15800 nM | – | –
Cc1cc(C(=O)CN2CCN(c3ccncc3)CC2)ccc1OCC(=O)O [Example 127, 4-[2-[4-(4-Pyridyl)piperazin-1-yl]acetyl]-2-methyl-phenoxyacetic acid, dihydrochloride] | 200 nM | 1580 nM | – | –
COc1cc(OCC(=O)O)ccc1C(=O)CN1CCN(c2ccncc2)CC1 [Example 128, 4-[2-[4-(4-Pyridyl)piperazin-1-yl]acetyl]-3-methoxy-phenoxyacetic acid, dihydrochloride] | 501 nM | 158 nM | – | –
O=C(O)COc1ccc(C(=O)CN2CCN(c3ccncc3)CC2)c(OCC(=O)O)c1 [Example 129, 2,2'-[4-[2-[4-(4-Pyridyl)piperazin-1-yl]acetyl]phenylene-1,3-dioxy]diaceticacid, dihydrochloride] | 316 nM | 12.6 nM | – | –
